According to patent US12077503B2, “Substituted cyclic amides and their use as herbicides” (FMC CORPORATION, priority 2015, dated 2024):

Experiments:
Assay type in all cases: in vivo
[1] = system: barnyardgrass (Echinochloa crus-galli); assay: Test A postemergence; conditions: Echinochloa crus-galli, post-emergence, 240 h, Postemergence
Method in brief: (§1)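 Seeded soil received test chemicals as a preemergence directed spray, and seedlings at one to two leaves, 2–10 cm tall, received them postemergence, in a non-phytotoxic, surfactant-containing solvent mixture. Pots were held in a greenhouse for approximately 10 d, then rated for injury from 0, no effect, to 100, complete control.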

[2] = system: wheat (Triticum aestivum); assay: Test A postemergence; conditions: Triticum aestivum, post-emergence, 240 h, Postemergence
Method in brief: as §1

[3] = system: giant foxtail (Setaria faberii); assay: Test A postemergence; conditions: Setaria faberi, post-emergence, 240 h, Postemergence
Method in brief: as §1

[4] = system: pigweed (Amaranthus retroflexus); assay: Test A postemergence; conditions: Amaranthus retroflexus, post-emergence, 240 h, Postemergence
Method in brief: as §1

[5] = system: blackgrass (Alopecurus myosuroides); assay: Test A postemergence; conditions: Alopecurus myosuroides, post-emergence, 240 h, Postemergence
Method in brief: as §1

[6] = system: ryegrass, Italian (Italian ryegrass, Lolium multiflorum); assay: Test A postemergence; conditions: Lolium multiflorum, post-emergence, 240 h, Postemergence
Method in brief: as §1

[7] = system: ragweed (common ragweed, Ambrosia elatior); assay: Test A postemergence; conditions: Ambrosia artemisiifolia, post-emergence, 240 h, Postemergence
Method in brief: as §1

Kochia (Kochia scoparia) [8] = assay: Test A postemergence; conditions: Bassia scoparia, post-emergence, 240 h, Postemergence
Method in brief: as §1

[9] = system: Galium (catchweed bedstraw, Galium aparine); assay: Test A postemergence; conditions: Galium, post-emergence, 240 h, Postemergence
Method in brief: as §1

corn (Zea mays) = assay: Test A postemergence; conditions: Zea mays, post-emergence, 240 h, Postemergence
Method in brief: as §1

[10] = system: giant foxtail (Setaria faberii); assay: Test A preemergence; conditions: Setaria faberi, pre-emergence, 240 h, preemergence, 0 to 100 scale where 0 is no effect and 100 is complete control, read-out: Foxtail, Giant plant response rating
Method in brief: as §1

[11] = system: pigweed (Amaranthus retroflexus); assay: Test A preemergence; conditions: Amaranthus retroflexus, pre-emergence, 240 h, preemergence, 0 to 100 scale where 0 is no effect and 100 is complete control, read-out: Pigweed plant response rating
[12] = system: ryegrass, Italian (Italian ryegrass, Lolium multiflorum); assay: Test A preemergence; conditions: Lolium multiflorum, pre-emergence, 240 h, preemergence, 0 to 100 scale where 0 is no effect and 100 is complete control, read-out: Ryegrass, Italian plant response rating
Method in brief: as §1

[13] = system: ragweed (common ragweed, Ambrosia elatior); assay: Test A preemergence; conditions: Ambrosia artemisiifolia, pre-emergence, 240 h, preemergence, 0 to 100 scale where 0 is no effect and 100 is complete control, read-out: Ragweed plant response rating
Method in brief: as §1

Kochia (Kochia scoparia) [14] = assay: Test A preemergence; conditions: Bassia scoparia, pre-emergence, 240 h, preemergence, 0 to 100 scale where 0 is no effect and 100 is complete control, read-out: Kochia plant response rating
Method in brief: as §1

[15] = 125 g ai/ha, visual injury rating, approximately 10 d

SMILES: COc1cc([C@H]2CN(C)C(=O)[C@@H]2C(=O)Nc2ccccc2SC)ccc1F [Compound 1301]
- pest or weed control at 125 g/ha ([1]; 125 g ai/ha, visual rating about 10 d after treatment, read-out: Barnyardgrass plant response rating (0 to 100 scale, 0 no effect, 100 complete control)): 20%
- pest or weed control at 500 g/ha ([1]; 500 g ai/ha, visual injury, 0 to 100 scale (0 no effect, 100 complete control), approx. 10 d, read-out: Plant response rating, Barnyardgrass): 90%
- plant injury at 125 g/ha ([2]; 125 g ai/ha, visual rating about 10 d after treatment, read-out: Wheat plant response rating (0 to 100 scale)): 0%
- plant injury at 500 g/ha ([2]; 500 g ai/ha, visual injury, 0 to 100 scale (0 no effect, 100 complete control), approx. 10 d, read-out: Plant response rating, Wheat): 0%
- pest or weed control at 125 g/ha ([3]; 125 g ai/ha, visual rating about 10 d after treatment, read-out: Foxtail, Giant plant response rating (0 to 100 scale)): 20%
- pest or weed control at 500 g/ha ([3]; 500 g ai/ha, visual injury, 0 to 100 scale (0 no effect, 100 complete control), approx. 10 d, read-out: Plant response rating, Foxtail, Giant): 20%
- pest or weed control at 125 g/ha ([4]; 125 g ai/ha, visual rating about 10 d after treatment, read-out: Pigweed plant response rating (0 to 100 scale)): 0%
- pest or weed control at 500 g/ha ([4]; 500 g ai/ha, visual injury, 0 to 100 scale (0 no effect, 100 complete control), approx. 10 d, read-out: Plant response rating, Pigweed): 0%
- pest or weed control at 125 g/ha ([5]; 125 g ai/ha, visual rating about 10 d after treatment, read-out: Blackgrass plant response rating (0 to 100 scale)): 0%
- pest or weed control at 500 g/ha ([5]; 500 g ai/ha, visual injury, 0 to 100 scale (0 no effect, 100 complete control), approx. 10 d, read-out: Plant response rating, Blackgrass): 0%
- pest or weed control at 125 g/ha ([6]; 125 g ai/ha, visual rating about 10 d after treatment, read-out: Ryegrass, Italian plant response rating (0 to 100 scale)): 0%
- pest or weed control at 500 g/ha ([6]; 500 g ai/ha, visual injury, 0 to 100 scale (0 no effect, 100 complete control), approx. 10 d, read-out: Plant response rating, Ryegrass, Italian): 0%
- pest or weed control at 125 g/ha ([7]; 125 g ai/ha, visual rating about 10 d after treatment, read-out: Ragweed plant response rating (0 to 100 scale)): 0%
- pest or weed control at 500 g/ha ([7]; 500 g ai/ha, visual injury, 0 to 100 scale (0 no effect, 100 complete control), approx. 10 d, read-out: Plant response rating, Ragweed): 0%
- pest or weed control at 125 g/ha (Kochia (Kochia scoparia) [8]; 125 g ai/ha, visual rating about 10 d after treatment, read-out: Kochia plant response rating (0 to 100 scale)): 0%
- pest or weed control at 500 g/ha (Kochia (Kochia scoparia) [8]; 500 g ai/ha, visual injury, 0 to 100 scale (0 no effect, 100 complete control), approx. 10 d, read-out: Plant response rating, Kochia): 50%
- pest or weed control at 125 g/ha ([9]; 125 g ai/ha, visual rating about 10 d after treatment, read-out: Galium plant response rating (0 to 100 scale)): 20%
- pest or weed control at 500 g/ha ([9]; 500 g ai/ha, visual injury, 0 to 100 scale (0 no effect, 100 complete control), approx. 10 d, read-out: Plant response rating, Galium): 60%
- plant injury at 125 g/ha (corn (Zea mays); 125 g ai/ha, visual rating about 10 d after treatment, read-out: Corn plant response rating (0 to 100 scale)): 0%
- Corn plant response rating (crop injury, 0 = no effect, 100 = complete kill) at 500 g/ha (corn (Zea mays); 500 g ai/ha, visual injury, 0 to 100 scale (0 no effect, 100 complete control), approx. 10 d): 0%
- pest or weed control at 125 g/ha [10, 15]: 90%
- pest or weed control at 500 g/ha ([10]; 500 g ai/ha): 90%
- pest or weed control at 125 g/ha [11, 15]: 0%
- pest or weed control at 500 g/ha ([11]; 500 g ai/ha): 30%
- pest or weed control at 125 g/ha [12, 15]: 0%
- pest or weed control at 500 g/ha ([12]; 500 g ai/ha): 0%
- pest or weed control at 125 g/ha [13, 15]: 0%
- pest or weed control at 500 g/ha ([13]; 500 g ai/ha): 20%
- pest or weed control at 125 g/ha (Kochia (Kochia scoparia) [14]; [15]): 30%
- pest or weed control at 500 g/ha (Kochia (Kochia scoparia) [14]; 500 g ai/ha): 60%
